# Experimental data taken from US20100075926A1, “ACTIVATION OF HISTONE DEACETYLASE 1 (HDAC1) PROTECTS AGAINST DNA DAMAGE AND INCREASES NEURONAL SURVIVAL” (priority 2008, published 2010).
# Columns and labels:
# recombinant human HDAC2 = target: T1, recombinant human HDAC2 (Homo sapiens, UniProt Q92769); assay: Caliper mobility shift deacetylase assay, HDAC2; assay type: biochemical; details: at the indicated concentration (8-40 μM); avg. n = 2; relative to DMSO
# T1 construct: purchased BPS Biosciences
# Source text: (§1) Values indicate % deacetylase inhibition (avg. n=2) relative to a solvent (DMSO) control treatment measured using recombinant human HDAC1 or HDAC2 and Caliper's mobility shift assay technology. Circle color corresponds to compounds shaded by degree of HDAC1 activity (red, decreased; blue, increased). (A) Complete dataset with box outlined with the red dashes corresponding to the region shown highlighted in (B), which in the assay corresponds to negative inhibition.
# (§2) To identify small molecule activators of HDAC1, a diverse collection of 1,760 small molecules composed of synthetic compounds, natural products, and a subset of FDA approved drugs were arrayed in 384-well plates as ˜10 mM dimethylsulphoxide (DMSO) stocks. To identify modulators (both activators and inhibitors) of HDACs, a fluorescence-based assay that utilizes Caliper's mobility shift assay technology (Hopkinton, Mass.) was used. This assay is based on the electrophoretic separation of N-acetyl lysine peptide substrate from the deacetylated product, which bears an additional positive charge. […] The product and substrate in each independent reaction were separated using a microfluidic chip (Caliper Life Sciences) run on a Caliper LC3000 (Caliper Life Sciences). The product and substrate fluorophore were excited at 488 nm and detected at 530 nm. Substrate conversion was calculated from the electrophoregram using HTS Well Analyzer software (Caliper Life Sciences). Since the amount of converted substrate is measured, and the reactions were performed at the Km for each enzyme, it is possible to identify both inhibitors and activators of HDACs using this assay.
# (§3) Using the mobility shift assay, all compounds were screened in duplicate using a panel of class I and class II HDACs and a N-acetyl lysine peptide substrate. For class I HDACs, HDAC1, HDAC2, and HDAC8 were used. For class IIb HDACs, HDAC6 and to HDAC10 were used. Compounds were incubated for 18-24 hrs and the percent inhibition (avg. n=2) relative to a solvent (DMSO) control treatment of each compound determined through measurement of substrate conversion. […] FIG. 11 provides a list of all of the structures that activated HDAC1 by a value of 5% or greater.
# recombinant human HDAC8 = target: T2, recombinant human HDAC8 (Homo sapiens, UniProt Q9BY41); assay: Caliper mobility shift deacetylase assay, HDAC8; assay type: biochemical; details: at the indicated concentration (8-40 μM); avg. n = 2; relative to DMSO
# T2 sequence (Q9BY41 1-377): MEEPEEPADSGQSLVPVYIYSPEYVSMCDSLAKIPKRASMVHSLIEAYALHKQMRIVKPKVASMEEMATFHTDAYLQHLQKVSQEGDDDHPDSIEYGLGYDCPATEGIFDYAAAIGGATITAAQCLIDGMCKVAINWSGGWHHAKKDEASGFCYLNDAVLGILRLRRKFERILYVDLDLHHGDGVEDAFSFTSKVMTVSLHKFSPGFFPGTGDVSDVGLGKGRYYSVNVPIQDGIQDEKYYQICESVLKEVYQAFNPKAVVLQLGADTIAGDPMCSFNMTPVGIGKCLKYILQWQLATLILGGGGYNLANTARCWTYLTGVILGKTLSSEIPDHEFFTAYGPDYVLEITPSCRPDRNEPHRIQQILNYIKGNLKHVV
# Experimental: as §2
# (§4) Using the mobility shift assay, all compounds were screened in duplicate using a panel of class I and class II HDACs and a N-acetyl lysine peptide substrate. For class I HDACs, HDAC1, HDAC2, and HDAC8 were used. For class IIb HDACs, HDAC6 and to HDAC10 were used. Compounds were incubated for 18-24 hrs and the percent inhibition (avg. n=2) relative to a solvent (DMSO) control treatment of each compound determined through measurement of substrate conversion.
# recombinant human HDAC6 = target: T3, recombinant human HDAC6 (Homo sapiens, UniProt Q9UBN7); assay: Caliper mobility shift deacetylase assay, HDAC6; assay type: biochemical; details: at the indicated concentration (8-40 μM); avg. n = 2; relative to DMSO
# T3 sequence (Q9UBN7 1-1215): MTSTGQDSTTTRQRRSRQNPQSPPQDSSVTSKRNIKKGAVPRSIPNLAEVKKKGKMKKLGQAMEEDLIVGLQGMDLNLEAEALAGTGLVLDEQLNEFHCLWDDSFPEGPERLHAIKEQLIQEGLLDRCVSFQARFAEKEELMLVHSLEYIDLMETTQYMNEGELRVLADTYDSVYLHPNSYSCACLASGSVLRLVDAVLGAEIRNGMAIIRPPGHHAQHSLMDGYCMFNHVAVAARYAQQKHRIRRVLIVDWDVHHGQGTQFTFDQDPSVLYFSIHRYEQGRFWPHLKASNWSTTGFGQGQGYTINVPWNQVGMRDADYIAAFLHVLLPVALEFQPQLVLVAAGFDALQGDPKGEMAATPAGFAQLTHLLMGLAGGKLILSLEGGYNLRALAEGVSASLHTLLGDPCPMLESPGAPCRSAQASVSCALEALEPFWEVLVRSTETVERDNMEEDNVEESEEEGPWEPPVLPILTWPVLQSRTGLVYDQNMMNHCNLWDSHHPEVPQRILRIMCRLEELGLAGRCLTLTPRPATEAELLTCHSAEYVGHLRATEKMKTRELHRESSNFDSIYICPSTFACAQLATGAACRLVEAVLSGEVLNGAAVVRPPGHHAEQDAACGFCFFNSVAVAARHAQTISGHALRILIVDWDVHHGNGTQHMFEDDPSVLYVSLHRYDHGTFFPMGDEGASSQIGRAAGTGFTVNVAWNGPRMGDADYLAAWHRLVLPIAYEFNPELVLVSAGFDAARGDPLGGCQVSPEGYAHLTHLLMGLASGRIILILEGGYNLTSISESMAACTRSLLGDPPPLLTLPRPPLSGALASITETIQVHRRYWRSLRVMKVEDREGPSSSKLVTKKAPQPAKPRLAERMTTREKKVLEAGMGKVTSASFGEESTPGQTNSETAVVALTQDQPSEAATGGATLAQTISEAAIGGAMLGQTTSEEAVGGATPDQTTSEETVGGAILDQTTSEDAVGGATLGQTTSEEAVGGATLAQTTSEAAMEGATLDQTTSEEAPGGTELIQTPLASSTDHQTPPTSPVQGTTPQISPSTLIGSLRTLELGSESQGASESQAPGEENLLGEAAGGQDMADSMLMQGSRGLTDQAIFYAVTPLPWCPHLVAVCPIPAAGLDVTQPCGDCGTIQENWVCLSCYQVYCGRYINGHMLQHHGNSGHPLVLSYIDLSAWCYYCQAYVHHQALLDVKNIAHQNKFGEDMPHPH
# Experimental: as §2, §4
# recombinant human HDAC1 = target: T4, recombinant human HDAC1 (Homo sapiens, UniProt Q13547); assay: Caliper mobility shift deacetylase assay, HDAC1; assay type: biochemical; details: at the indicated concentration (8-40 μM); avg. n = 2; relative to DMSO
# T4 construct: purchased BPS Biosciences
# Source text: as §1, §2, §3
# recombinant human HDAC10 = target: T5, recombinant human HDAC10 (Homo sapiens, UniProt Q969S8); assay: Caliper mobility shift deacetylase assay, HDAC10; assay type: biochemical; details: at the indicated concentration (8-40 μM); avg. n = 2; relative to DMSO
# T5 sequence (Q969S8 1-669): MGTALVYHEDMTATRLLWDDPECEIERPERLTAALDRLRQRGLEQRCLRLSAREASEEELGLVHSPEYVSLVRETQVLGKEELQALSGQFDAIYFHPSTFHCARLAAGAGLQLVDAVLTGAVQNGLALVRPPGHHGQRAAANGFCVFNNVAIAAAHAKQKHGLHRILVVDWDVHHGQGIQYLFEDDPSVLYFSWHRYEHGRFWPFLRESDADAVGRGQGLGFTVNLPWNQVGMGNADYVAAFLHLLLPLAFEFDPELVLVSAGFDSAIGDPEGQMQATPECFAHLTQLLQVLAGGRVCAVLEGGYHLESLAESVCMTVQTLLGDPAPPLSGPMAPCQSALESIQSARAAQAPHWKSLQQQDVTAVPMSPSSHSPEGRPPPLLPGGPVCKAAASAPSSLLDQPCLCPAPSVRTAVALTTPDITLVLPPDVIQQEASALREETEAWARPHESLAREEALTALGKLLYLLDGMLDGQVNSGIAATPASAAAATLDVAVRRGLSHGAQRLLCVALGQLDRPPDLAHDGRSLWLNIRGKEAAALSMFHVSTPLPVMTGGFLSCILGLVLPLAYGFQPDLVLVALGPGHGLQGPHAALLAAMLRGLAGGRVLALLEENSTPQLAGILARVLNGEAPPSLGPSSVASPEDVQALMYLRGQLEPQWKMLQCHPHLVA
# Experimental: as §2, §4
# primary cortical neurons = assay: γH2AX and Ki-67 immunostaining of primary cortical neurons treated with HDAC1 inhibitor; assay type: cell-based; details: 1 μM, 24 h, compared to vehicle (DMSO) controls
# Experimental: (A, B) Primary cortical neurons were transfected with either HDAC1 siRNA or random sequence siRNA, along with GFP at a 7:1 ratio to label transfected neurons. Cells were fixed at 24 h, 48 h, and 72 h post-transfection and immunostained for γH2AX. GFP-positive neurons were scored for γH2AX immunoreactivity and for cell death based on nuclear condensation and neuritic integrity, as described in Methods. (A) Representative micrographs. HDAC1 siRNA or control (random sequence) siRNA transfected neurons are indicated by arrows. The HDAC1 siRNA transfected neurons display neuritic breakage. The inset is a magnification of the γH2AX staining of the neuron indicated by arrow and asterisk, showing γH2AX foci of varying sizes. Percentage of γH2AX and cell death are shown as averages from multiple sets ±S.D. It was noted that transfection of control siRNA per se appeared to cause a low but detectable level of γH2AX immunoreactivity and cell death. […] Controls were treated with equal amounts of vehicle (DMSO). Total numbers of γH2AX and Ki-67 positive neurons were quantified over 20 microscope fields (field diameter ˜900 μm). Scale bar=100 μm. […] Scale bar=[…].
# Our findings raised the possibility that p25/cdk5 may cause both cell cycle reentry and DNA damage through inhibition of HDAC1 activity. We examined the effects of siRNA-mediated knockdown or pharmacological inhibition of HDAC1.
# WT mice = assay: Contextual fear conditioning in WT mice; assay type: in vivo, mouse
# Experimental: Fear conditioning. Fear conditioning experiments were carried out as previously described (Kim et al., 2007), using a fear conditioning apparatus (TSE Systems, Midland, Mich.).
# leukemia patients = details: phase I clinical trial; cited from earlier work
# [1] = tested on: brain-derived neurotrophic factor (BDNF) expression in glioma cell line (C6); assay: BDNF expression in glioma cell line (C6); assay type: cell-based; details: submicromolar concentrations, data not shown
# T4 sequence (Q13547 whole entry): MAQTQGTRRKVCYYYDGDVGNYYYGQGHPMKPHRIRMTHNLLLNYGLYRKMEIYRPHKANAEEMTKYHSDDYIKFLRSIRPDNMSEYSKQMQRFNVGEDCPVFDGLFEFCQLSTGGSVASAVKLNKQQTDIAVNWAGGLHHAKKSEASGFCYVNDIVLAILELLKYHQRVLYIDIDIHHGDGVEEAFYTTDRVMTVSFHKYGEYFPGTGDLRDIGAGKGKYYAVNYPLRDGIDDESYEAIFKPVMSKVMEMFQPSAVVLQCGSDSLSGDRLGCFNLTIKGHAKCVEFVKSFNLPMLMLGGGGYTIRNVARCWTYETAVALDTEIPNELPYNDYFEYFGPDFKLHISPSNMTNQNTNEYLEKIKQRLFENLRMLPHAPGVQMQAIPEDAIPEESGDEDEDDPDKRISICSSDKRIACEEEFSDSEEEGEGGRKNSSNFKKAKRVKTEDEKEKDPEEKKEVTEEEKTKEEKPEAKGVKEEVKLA
# T1 sequence (Q92769 whole entry): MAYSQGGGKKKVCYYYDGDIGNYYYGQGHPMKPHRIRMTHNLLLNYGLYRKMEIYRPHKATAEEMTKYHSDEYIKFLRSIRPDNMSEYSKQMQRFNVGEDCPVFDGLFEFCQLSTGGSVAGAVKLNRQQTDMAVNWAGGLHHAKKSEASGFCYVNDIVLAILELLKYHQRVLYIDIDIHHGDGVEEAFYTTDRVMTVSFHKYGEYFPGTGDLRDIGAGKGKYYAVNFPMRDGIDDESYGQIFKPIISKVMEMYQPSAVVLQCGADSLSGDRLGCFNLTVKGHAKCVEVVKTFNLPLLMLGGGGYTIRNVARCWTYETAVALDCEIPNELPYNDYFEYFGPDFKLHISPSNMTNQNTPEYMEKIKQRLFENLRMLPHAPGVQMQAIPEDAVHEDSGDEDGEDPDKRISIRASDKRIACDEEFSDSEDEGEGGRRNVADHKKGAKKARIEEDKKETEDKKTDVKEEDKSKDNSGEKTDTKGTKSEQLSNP
HDAC2 % activation of deacetylase activity (recombinant human HDAC2) [%],HDAC8 % activation of deacetylase activity (recombinant human HDAC8) [%],HDAC6 % activation of deacetylase activity (recombinant human HDAC6) [%],HDAC1 % activation of deacetylase activity (recombinant human HDAC1) [%],HDAC10 % activation of deacetylase activity (recombinant human HDAC10) [%],aberrant expression of Ki-67 (Ki-67 positive neurons) (primary cortical neurons) [fold increase],double strand DNA breaks (γH2AX positive neurons) (primary cortical neurons) [fold increase],"freezing behavior in contextual fear conditioning (WT mice; 25 mg/kg IP daily for 10 days, vs saline)",associative learning capability (contextual fear conditioning) (WT mice; 12.5 or 25 mg/kg IP daily for 10 days),Molecule,dose-limiting toxicity (DLT) (leukemia patients),expression of brain-derived neurotrophic factor (BDNF) [1]
−1,2,−4,5,−3,–,–,–,–,CC1=NN(c2ccc(Br)cc2Br)C(=O)/C1=C(/C)NCc1ccccc1 [TAM-12],–,–
−6,−1,−10,11,13,–,–,–,–,tetrahydrogamboic acid,–,–
−4,0,−5,19,19,–,–,–,–,COc1ccc(-c2cc(=O)c3c(O)cc(O)c(-c4cc(-c5cc(=O)c6c(O)cc(OC)cc6o5)ccc4OC)c3o2)cc1 [sciadopitysin],–,–
−3,4,−5,8,2,–,–,–,–,CC(=O)N(O)CCCCCNC(=O)CCC(=O)N(O)CCCCCNC(=O)CCC(=O)N(O)CCCCCN [deferoxamine],–,–
−5,0,−2,5,1,–,–,–,–,COC(=O)[C@H]1[C@H]2C[C@H]3c4[nH]c5ccccc5c4CCN3C[C@H]2CC[C@@H]1O [alpha-yohimbine],–,–
–,–,–,–,–,1.8,8.1,reduced freezing behavior,impaired associative learning capability,Nc1ccccc1NC(=O)c1ccc(CNC(=O)OCc2cccnc2)cc1 [MS-275],neurologic toxicity manifesting as unsteady gait and somnolence,–
–,–,–,–,–,–,–,–,–,"O=C(CCCCCCC(=O)Nc1ccccc1)NO [SAHA, suberoylanilide hydroxamic acid]",–,induced expression
−7,−3,−18,42,56,–,–,–,–,ginkgetin K [genxgetin K],–,–

Molecule,HDAC2 % activation of deacetylase activity (recombinant human HDAC2) [%],HDAC8 % activation of deacetylase activity (recombinant human HDAC8) [%],HDAC6 % activation of deacetylase activity (recombinant human HDAC6) [%],HDAC1 % activation of deacetylase activity (recombinant human HDAC1) [%],HDAC10 % activation of deacetylase activity (recombinant human HDAC10) [%],aberrant expression of Ki-67 (Ki-67 positive neurons) (primary cortical neurons) [fold increase],double strand DNA breaks (γH2AX positive neurons) (primary cortical neurons) [fold increase],"freezing behavior in contextual fear conditioning (WT mice; 25 mg/kg IP daily for 10 days, vs saline)",associative learning capability (contextual fear conditioning) (WT mice; 12.5 or 25 mg/kg IP daily for 10 days),dose-limiting toxicity (DLT) (leukemia patients),expression of brain-derived neurotrophic factor (BDNF) [1]
O=c1c(O)cc([C@H]2Oc3cc(O)cc(O)c3C[C@H]2O)cc2c([C@H]3Oc4cc(O)cc(O)c4C[C@H]3O)cc(O)c(O)c12 [theaflavin],−8,−10,−79,5,0,–,–,–,–,–,–
CC(C)=CCC[C@]1(C)C=Cc2c(O)c3c(c(CC=C(C)C)c2O1)O[C@]12C(=C[C@@H]4C[C@H]1C(C)(C)O[C@@]2(C/C=C(/C)C(=O)O)C4=O)C3=O [gambogic acid],−5,−8,−63,22,13,–,–,–,–,–,–
